Results published in PMC4687057, “The function of phosphatidylinositol 5-phosphate 4-kinase γ (PI5P4Kγ) explored using a specific inhibitor that targets the PI5P-binding site” (Biochemical Journal, 2015).

Legend:
[1] = molecular target: T1, PI5P4Kγ+ (E378H,I159V,D161V) mutant (Homo sapiens, UniProt Q8TBX8, D161V/E153T/I159V/Q378H); assay: […] lipid kinase assay, % inhibition at […]; type: biochemical
T1 construct: gene PIP4K2C
T1 sequence (Q8TBX8 2-421 E153T/I159V/D161V/Q378H): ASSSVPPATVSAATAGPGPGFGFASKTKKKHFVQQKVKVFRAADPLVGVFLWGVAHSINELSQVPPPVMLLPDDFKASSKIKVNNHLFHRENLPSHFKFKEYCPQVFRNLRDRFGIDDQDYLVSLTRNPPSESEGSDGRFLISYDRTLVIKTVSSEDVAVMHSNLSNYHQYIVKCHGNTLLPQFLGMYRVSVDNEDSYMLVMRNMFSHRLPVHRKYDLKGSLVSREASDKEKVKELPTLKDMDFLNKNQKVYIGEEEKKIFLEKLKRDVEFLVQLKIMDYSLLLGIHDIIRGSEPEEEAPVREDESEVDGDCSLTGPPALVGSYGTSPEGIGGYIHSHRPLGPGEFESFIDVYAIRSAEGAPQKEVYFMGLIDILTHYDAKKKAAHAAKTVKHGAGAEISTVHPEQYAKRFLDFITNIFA

[2] = molecular target: T2, phosphatidylinositol 5-phosphate 4-kinase γ (PI5P4Kγ) (Homo sapiens, UniProt Q8TBX8); assay: HDX-MS with purified protein; IC50 from […]P lipid kinase assay on recombinant enzyme; type: biochemical
T2 construct: gene PIP4K2C; PI5P4Kγ from GST fusion (pGEX6P), GST cleaved with PreScission protease
T2 sequence (Q8TBX8 2-421): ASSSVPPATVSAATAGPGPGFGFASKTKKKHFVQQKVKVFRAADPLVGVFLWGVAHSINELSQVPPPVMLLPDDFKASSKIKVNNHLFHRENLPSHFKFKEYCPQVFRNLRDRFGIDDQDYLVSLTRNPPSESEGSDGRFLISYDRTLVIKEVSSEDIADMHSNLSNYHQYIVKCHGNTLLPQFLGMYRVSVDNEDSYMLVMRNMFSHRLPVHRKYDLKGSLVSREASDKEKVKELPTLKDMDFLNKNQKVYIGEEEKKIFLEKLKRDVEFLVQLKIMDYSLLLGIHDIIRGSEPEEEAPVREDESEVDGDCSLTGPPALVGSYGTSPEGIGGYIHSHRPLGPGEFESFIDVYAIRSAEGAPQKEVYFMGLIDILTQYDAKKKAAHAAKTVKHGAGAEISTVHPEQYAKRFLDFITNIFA

Compound: FC(F)(F)c1ccccc1-c1nc(NCc2cccs2)c2ccccc2n1 [compound 1, NIH-12848]
- inhibition at 10 µM [1]: 71%
- IC50 [2]: 3.3 µM
